Measured values from patent US20160185774A1, “Anti-Infective Compounds” (priority 2013, published 2016).
Values after ≈ are worked out from the molar mass of the structure shown.

What was measured:
M. tuberculosis = test: microbe, parasite or virus in culture; format: cell-based; conditions: Mycobacterium tuberculosis, 120 h; read-out: QUM (MIC80)
M. tuberculosis H37Rv = test: In vivo activity in a murine model of acute tuberculosis infection (lung CFU); conditions: 50 mg/kg orally once daily, 3 days of treatment starting at day 6, female BalbC mice
Procedure: The effect of compounds 171 and 175 on the bacterial load of TB-infected mice was compared to that of the reference compound Isoniazid (INH). 8-week old female BalbC mice were infected with 8×10^6 M. tuberculosis H37Rv via intranasal inoculation. Mice were sacrificed at day 1 to control the number of CFU in the lungs. In the acute model of infection, mice were treated for 3 days, starting at day 6. Compounds were freshly dissolved in a 20% d-α-tocopheryl polyethylene glycol 1000 succinate (ETPGS) solution and administered by oral gavage as single dose per day. Bacterial load was assessed in lungs after homogenizing the organs in 1×PBS. Serial dilutions of organs homogenates were spread on Middlebrook 7H11 plates and CFU were determined after 3 weeks incubation at 37° C. under 5% CO2.

With `CCc1nc2cc(C)ccn2c1C(=O)NCc1ccc(N2CCC(c3ccc(OC(F)(F)F)cc3)CC2)cc1` [Compound 171] the MIC80 (M. tuberculosis) was < 1 µM and the “CFU in the lungs compared to untreated mice” value (M. tuberculosis H37Rv) was “reduction of CFU compared to untreated mice”.
With `CCc1nc2cc(F)ccn2c1C(=O)NCc1ccc(N2CCC(c3ccc(OC(F)(F)F)cc3)CC2)cc1` [Compound 175] the MIC80 (M. tuberculosis) was < 1 µM and the “CFU in the lungs compared to untreated mice” value (M. tuberculosis H37Rv) was “reduction of CFU compared to untreated mice”.
For `CCc1nc2ccc(Cl)cn2c1C(=O)NCc1cccc(N2CCC(c3ccc(OC(F)(F)F)cc3)CC2)c1` [Compound 249], the MIC80 (M. tuberculosis) was > 20 µM and the melting point was 135.5 to 136.4 °C.
For `CCc1nc2ccc(Cl)cn2c1C(=O)NCc1cccc(CC(=O)Nc2ccc(F)cc2)c1` [Compound 250], the MIC80 (M. tuberculosis) was > 20 µM and the melting point was > 198.8 °C (dec.).
For `CCc1nc2ccc(Cl)cn2c1C(=O)NCc1cccc(N2CCN(c3ccc(OC(F)(F)F)cc3)CC2)c1` [Compound 251], the MIC80 (M. tuberculosis) was 1 to 20 µM (≈ 0.558 to 11.2 µg/mL) and the melting point was > 168 °C (dec.).
In the case of `CCc1nc2ccc(Cl)cn2c1C(=O)NCc1ccc(CC2CCOCC2)cc1` [Compound 253], the MIC80 (M. tuberculosis) is reported as < 1 µM and the melting point is reported as 132.2 to 133 °C.
For `CCc1nc2cc(Cl)ccn2c1C(=O)NCc1ccc(CC2CCOCC2)cc1` [Compound 254], the MIC80 (M. tuberculosis) was < 1 µM and the melting point was > 125.9 °C (dec.).
For `CCc1nc2ccc(Cl)cn2c1C(=O)NCc1cccc(N2CCC(Oc3ccc(OC(F)(F)F)cc3)CC2)c1` [Compound 255], the MIC80 (M. tuberculosis) was > 20 µM and the melting point was 126.3 to 127.2 °C.
For `CCc1nc2ccc(Cl)cn2c1C(=O)NCc1cc2cc(Cl)ccc2s1` [Compound 256], the MIC80 (M. tuberculosis) was < 1 µM and the melting point was > 220 °C.
For `CCc1nc2ccccn2c1C(=O)NCc1ccc(C2CCOCC2)cc1` [Compound 257], the MIC80 (M. tuberculosis) was < 1 µM and the melting point was > 133.7 °C (dec.).
In the case of `CCc1nc2ccc(Cl)cn2c1C(=O)NCc1ccc(C2CCOCC2)cc1` [Compound 258], the MIC80 (M. tuberculosis) is reported as < 1 µM and the melting point is reported as > 195.5 °C (dec.).
With `CCc1nc2cc(Cl)ccn2c1C(=O)NCc1ccc(C2CCOCC2)cc1` [Compound 259] the MIC80 (M. tuberculosis) was < 1 µM and the melting point was > 156.6 °C (dec.).
With `CCc1nc2ccc(Cl)cn2c1C(=O)NCc1cc2cc(Cl)ccc2o1` [Compound 261] the MIC80 (M. tuberculosis) was < 1 µM and the melting point was 223.5 to 225.6 °C.
With `CCc1nc2ccc(Cl)cn2c1C(=O)NCc1nc2ccc(Cl)cc2n1C` [Compound 262] the MIC80 (M. tuberculosis) was > 20 µM and the melting point was > 220 °C.
In the case of `CCc1nc2ccc(Cl)cn2c1C(=O)NCc1nc2cc(Cl)ccc2n1C` [Compound 263], the MIC80 (M. tuberculosis) is reported as > 20 µM and the melting point is reported as > 220 °C.
In the case of `CCc1nc2ccc(Cl)cn2c1C(=O)NCc1nc2ccc(Cl)cc2o1` [Compound 264], the MIC80 (M. tuberculosis) is reported as 1 to 20 µM (≈ 0.389 to 7.78 µg/mL) and the melting point is reported as 201.1 to 201.8 °C.
In the case of `CCc1nc2cc(Cl)ccn2c1C(=O)NCc1nc2cc(-c3ccc(OC(F)(F)F)cc3)ccc2o1` [Compound 265], the MIC80 (M. tuberculosis) is reported as 1 to 20 µM (≈ 0.515 to 10.3 µg/mL) and the melting point is reported as > 220 °C.
In the case of `CCc1nc2ccc(Cl)cn2c1C(=O)NCc1nc2ccc(Cl)cc2s1` [Compound 266], the MIC80 (M. tuberculosis) is reported as 1 to 20 µM (≈ 0.405 to 8.11 µg/mL) and the melting point is reported as > 220 °C.
With `CCc1nc2ccc(F)cn2c1C(=O)NCc1ccc(N2CCC(c3ccc(OC(F)(F)F)cc3)CC2)cc1` [Compound 267] the MIC80 (M. tuberculosis) was < 1 µM and the melting point was > 167.9 °C (dec.).
In the case of `CCc1nc2c(F)cccn2c1C(=O)NCc1ccc(N2CCC(c3ccc(OC(F)(F)F)cc3)CC2)cc1` [Compound 268], the MIC80 (M. tuberculosis) is reported as < 1 µM and the melting point is reported as > 177.7 °C (dec.).
For `CCc1nc2cc(Cl)ccn2c1C(=O)NCc1nc2ccc(-c3ccc(OC(F)(F)F)cc3)cc2o1` [Compound 269], the MIC80 (M. tuberculosis) was < 1 µM and the melting point was > 220 °C.
With `CCc1nc2cc(Cl)ccn2c1C(=O)NCc1ccc(N2CC(Cc3ccc(F)cc3)OC2=O)cc1` (stereo not shown) [Compound 270] the MIC80 (M. tuberculosis) was < 1 µM and the melting point was > 96.9 °C (dec.).
With `CCc1nc2cc(Cl)ccn2c1C(=O)NCc1ccc(N2CC(COc3ccc(F)cc3)OC2=O)cc1` (stereo not shown) [Compound 271] the MIC80 (M. tuberculosis) was 1 to 20 µM (≈ 0.523 to 10.5 µg/mL) and the melting point was > 97.1 °C.
In the case of `CCc1nc2ccc(Cl)cn2c1C(=O)NCc1ccc(CN2CCOC2=O)cc1` [Compound 282], the MIC80 (M. tuberculosis) is reported as 1 to 20 µM (≈ 0.413 to 8.26 µg/mL) and the melting point is reported as 179 °C.
For `CCc1nc2cc(Cl)ccn2c1C(=O)NCc1ccc(CN2CCOC2=O)cc1` [Compound 283], the MIC80 (M. tuberculosis) was 1 to 20 µM (≈ 0.413 to 8.26 µg/mL) and the melting point was 172 °C.
With `CCc1nc2ccc(Cl)cn2c1C(=O)NCc1ccc(CN2CCOCC2)cc1` [Compound 284] the MIC80 (M. tuberculosis) was < 1 µM and the melting point was 133 °C.
In the case of `CCc1nc2cc(Cl)ccn2c1C(=O)NCc1ccc(CN2CCOCC2)cc1` [Compound 285], the MIC80 (M. tuberculosis) is reported as < 1 µM and the melting point is reported as 107 °C.
For `CCc1nc2ccc(Cl)cn2c1C(=O)NCc1ccc(N(C)c2ccc(OC(F)(F)F)cc2)cc1` [Compound 286], the MIC80 (M. tuberculosis) was < 1 µM and the melting point was 138 °C.
For `CCc1nc2cc(Cl)ccn2c1C(=O)NCc1ccc(N(C)c2ccc(OC(F)(F)F)cc2)cc1` [Compound 287], the MIC80 (M. tuberculosis) was < 1 µM and the melting point was 134 °C.
For `CCc1nc2ccccn2c1C(=O)NCc1ccc(N(C)c2ccc(OC(F)(F)F)cc2)cc1` [Compound 288], the MIC80 (M. tuberculosis) was < 1 µM and the melting point was 120 °C.
In the case of `COc1ccc2nc(C)c(C(=O)NCc3ccc(N4CCC(c5ccc(F)cc5)CC4)cc3)n2c1` [Compound 289], the MIC80 (M. tuberculosis) is reported as < 1 µM and the melting point is reported as 192 °C.
With `COc1ccc2nc(C)c(C(=O)NCc3ccc(N4CCC(c5ccc(C)cc5)CC4)cc3)n2c1` [Compound 290] the MIC80 (M. tuberculosis) was < 1 µM and the melting point was 178 °C.
In the case of `COc1ccc2nc(C)c(C(=O)NCc3ccc(N4CCC(c5ccc(C(F)(F)F)cc5)CC4)cc3)n2c1` [Compound 291], the MIC80 (M. tuberculosis) is reported as < 1 µM and the melting point is reported as 207 °C.
For `COc1ccc2nc(C)c(C(=O)NCc3ccc(N4CCC(c5ccc(OC(F)(F)F)cc5)CC4)cc3)n2c1` [Compound 292], the MIC80 (M. tuberculosis) was < 1 µM and the melting point was 183 °C.
With `Cc1ccc2nc(C)c(C(=O)NCc3ccc(N4CCC(c5ccc(F)cc5)CC4)cc3)n2c1` [Compound 293] the MIC80 (M. tuberculosis) was < 1 µM and the melting point was 181 °C.
For `Cc1ccc2nc(C)c(C(=O)NCc3ccc(N4CCC(c5ccc(Cl)cc5)CC4)cc3)n2c1` [Compound 294], the MIC80 (M. tuberculosis) was < 1 µM and the melting point was 188 °C.
For `COc1ccc(C2CCN(c3ccc(CNC(=O)c4c(C)nc5ccc(C)cn45)cc3)CC2)cc1` [Compound 295], the MIC80 (M. tuberculosis) was < 1 µM and the melting point was 184 °C.
With `Cc1ccc2nc(C)c(C(=O)NCc3ccc(N4CCC(c5ccc(OC(F)(F)F)cc5)CC4)cc3)n2c1` [Compound 296] the MIC80 (M. tuberculosis) was < 1 µM and the melting point was 184 °C.
